Here are results for nine molecules from patent US20070244169A1, “GLUCOKINASE ACTIVATORS” (priority 2005, published 2007).

In the experiment the target is T1, GST-hLGK1 (GK) (Homo sapiens, UniProt P35557).
T1 construct: GST (N); made in house
T1 sequence (P35557 1-464 isoform P35557-3): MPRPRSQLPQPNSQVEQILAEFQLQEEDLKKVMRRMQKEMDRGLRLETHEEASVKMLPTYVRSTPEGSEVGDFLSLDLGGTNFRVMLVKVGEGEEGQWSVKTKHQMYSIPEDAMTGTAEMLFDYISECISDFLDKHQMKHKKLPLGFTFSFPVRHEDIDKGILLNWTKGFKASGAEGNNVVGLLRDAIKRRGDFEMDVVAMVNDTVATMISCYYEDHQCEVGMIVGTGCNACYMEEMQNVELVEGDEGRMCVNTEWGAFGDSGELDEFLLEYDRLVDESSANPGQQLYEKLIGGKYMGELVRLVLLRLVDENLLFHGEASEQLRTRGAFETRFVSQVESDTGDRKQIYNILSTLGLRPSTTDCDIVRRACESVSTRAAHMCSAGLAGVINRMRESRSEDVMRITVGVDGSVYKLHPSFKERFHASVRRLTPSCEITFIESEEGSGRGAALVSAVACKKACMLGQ
Put plainly: GK activation assay with GST-hLGK1 and Mant-ATP, capillary electrophoresis readout. It is filed as biochemical. The note with it: GST-hLGK1 6 μg/mL, 50 μM Mant-ATP, 25 mM D-glucose solution (10 μL) added, 37° C. for 60 min; concentration for 50% of the maximum activity value; read-out: EC50 of Exemplified Compounds against GK. The procedure: A 50% solution (5 μL) of the test compound in dimethyl sulfoxide was added to each well of a 384 well black plate (Nalge Nunc). Then, 35 μL of a liquid obtained by diluting GST-hLGK1 obtained in Reference Example 2A with a measurement buffer (50 mM HEPES (pH 7.4), containing 200 mM KCl, 5 mM MgCl2, 2.5 mM DTT and 50 μM 2′-(or-3′)—O—(N-methylanthraniloyl)adenosine 5′-triphosphate (Mant-ATP) (Jena Bioscience)) was added to each well to 6 μg/mL. Each well was maintained at 37° C. for 10 min, and a 25 mM D-glucose solution (10 μL) was added to start the reaction. After the start of the reaction, each well was allowed to stand at 37° C. for 60 min, before quenching the reaction by adding 25 μL of a reaction quenching solution (200 mM HEPES (pH 7.4), containing 20 mM MgCl2, 200 mM EDTA, 0.03% Triton-X 100, 0.3% Coating 3 reagent (Caliper Life Sciences)).
Mant-ATP (substrate) and Mant-ADP (reaction resultant product) were separated from each well after quenching the reaction, with a microchip type capillary electrophoresis apparatus 250HTS (Caliper Life Sciences). The reaction rate [(peak height of reaction resultant product)/(peak height of reaction resultant product+peak height of substrate)×100(%)] was calculated from the ratio of the substrate peak height and the reaction resultant product peak height, which were obtained by fluorescence detection (excitation wavelength 355 nm, measurement wavelength 460 nm), and used as an index of the GK activity.
For the control, the reaction rate was calculated in the same manner as above, except that a “50% dimethyl sulfoxide solution” was used instead of the “50% solution of the test compound in dimethyl sulfoxide”.
A percentage obtained by dividing the reaction rate of the well with the test compound (test compound addition group) by the reaction rate of the well with a 50% dimethyl sulfoxide solution alone (control group) was taken as the GK activation value by the test compound, and the concentration of the test compound necessary for the activation of 50% of the maximum activity value determined as an EC50 value.
Take `O=[N+]([O-])c1ccc2[nH]nc(Nc3nccs3)c2c1` [Compound 20, 5-Nitro-N-1,3-thiazol-2-yl-1H-indazol-3-amine]: the EC50 (usually the concentration giving half of the maximal effect) stood at 6600 nM.
With `CC(C)c1ccc2[nH]nc(Nc3nccs3)c2c1` [Compound 33, 5-Isopropyl-N-1,3-thiazol-2-yl-1H-indazol-3-amine], the concentration for a half-maximal effect (EC50) turned out to be 2900 nM.
In the case of `Cn1nc(Nc2nccs2)c2cc(C(F)(F)F)ccc21` [Compound 9, 1-Methyl-N-1,3-thiazol-2-yl-5-(trifluoromethyl)-1H-indazol-3-amine], the EC50 worked out at 2500 nM.
On to `CC(C)Oc1ccc2[nH]nc(Nc3nccs3)c2c1` [Compound 34, 5-Isopropoxy-N-1,3-thiazol-2-yl-1H-indazol-3-amine], for which the concentration for a half-maximal effect (EC50) came to 1700 nM.
Consider `CC(C)Cc1ccc2[nH]nc(Nc3nccs3)c2c1` [Compound 29, 5-Isobutyl-N-1,3-thiazol-2-yl-1H-indazol-3-amine], for which the EC50 came to 1200 nM.
For `CC(=O)Nc1ccc2[nH]nc(Nc3nccs3)c2c1` [Compound 22, N-[3-(1,3-Thiazol-2-ylamino)-1H-indazol-5-yl]acetamide], the EC50 worked out at 15000 nM.
Consider `COCC(C)Oc1ccc2[nH]nc(Nc3nccs3)c2c1` (stereo not drawn) [Compound 35, 5-(2-Methoxy-1-methylethoxy)-N-1,3-thiazol-2-yl-1H-indazol-3-amine], for which the EC50 was found to be 2400 nM.
`Brc1ccc2[nH]nc(Nc3nccs3)c2c1` [Compound 7, 5-Bromo-N-1,3-thiazol-2-yl-1H-indazol-3-amine]: the EC50 came out at 5000 nM.
For the molecule `CC(=O)c1ccc2[nH]nc(Nc3nccs3)c2c1` [Compound 25, 1-[3-(1,3-Thiazol-2-ylamino)-1H-indazol-5-yl]ethanone], the concentration giving a half-maximal response (EC50) was 8600 nM.
